The results in this text go back to patent publication US20220162191A1, “SMALL MOLECULE MODULATORS OF IL-17” (LEO PHARMA A/S, priority 2019, published 2022).

Molecules are shown by their SMILES. Where only a bound is given, the exact number is not on record here.

The target of this assay is T1, human IL-17AA (Homo sapiens, UniProt Q16552).
T1 construct: host or cells: HEK (human embryonic kidney) cells
T1 sequence (Q16552 24-155) 1: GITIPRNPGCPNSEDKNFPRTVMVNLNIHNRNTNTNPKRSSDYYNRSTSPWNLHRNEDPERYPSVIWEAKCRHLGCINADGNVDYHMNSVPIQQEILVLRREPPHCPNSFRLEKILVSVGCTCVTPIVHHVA
T1 sequence (Q16552 24-155) 2: T1 sequence (Q16552 24-155) 1
Put plainly: IL-8 release assay in human epithelial keratinocytes adult (HEKa). The format is cell-based. To be noted: 3 ng/ml human IL-17AA + 10 ng/ml human TNFalpha, 68-72 h, IL-8 by HTRF, read-out: Rel EC50 L-8 release assay. As for the experimental part: Example: IL-8 release assay in human epithelial keratinocytes adult (HEKa) Keratinocytes were seeded at 3500 cells/well in 384-well ViewPlates (Perkin Elmer) in Epilife medium (Thermo Fisher) containing human keratinocyte growth supplement (HKGS) without hydrocortisone and incubated in a humid incubator at 37° C., 5% CO2, overnight. The following day growth medium was removed and 25 μl fresh Epilife 10 medium added. 75 nl test compound in 100% DMSO was added into each well reserved
for test compounds, by the use of acoustic pipetting. The remaining wells received an equal volume of DMSO only, as vehicle control, or terfenadine in DMSO, as a positive control for any cytotoxic compounds. Subsequently, another 25 μl Epilife medium was added to each well. Finally, wells containing test compounds and wells prepared to yield 15 maximum stimulation received 25 μl of 9 ng/ml recombinant, human embryonic kidney cell (HEK)-derived human IL-17AA+30 ng/ml human TNF-alpha, in Epilife medium. Wells prepared to define 100% inhibition of IL-17 effects received 25 μl of 30 ng/ml human TNF-alpha alone, in Epilife medium. Final concentrations were 3 ng/ml HEKhuman IL-17AA+10 ng/ml human TNFalpha (maximum stimulation) and 10 ng/ml 20 human TNFalpha alone (100% inhibition, Emax), respectively. Cells were incubated for 68-72 h in the incubator. IL-8 released from the cells was measured by the use of a commercial homogenous time-resolved fluorescence (HTRF) assay (CisBio). 2 μl cell culture supernatant was transferred to a 384-well Proxiplate. 5 μl HTRF reagent was added and the plates incubated sealed in the dark for 3-22 h at room temperature. Time resolved fluorescence was read at 665 vs 620 nm, with excitation at 320 nm, and IL-8 levels calculated as percent of controls. Reduction of the amount of secreted IL-8 indicates decreased IL-17 signaling. Concentration response curves were fitted by the use of a four-parameter logistic equation. Relative IC50 and Emax were reported from 5 curves showing acceptable fit (r2>0.9). Cytotoxicity was measured in the cell-containing
Compounds of the present invention were tested in the IL-8 release assay in human epithelial keratinocytes.
For `CC(C)n1cc(-c2ccc3c(c2)[C@H]([C@H](NC(=O)c2ccnn2C)C(=O)Nc2ccc(-c4cncn4C)cc2)CC3)ccc1=O` [Example 3, N-[(1S)-1-[(1R)-6-(1-isopropyl-6-oxo-3-pyridyl)indan-1-yl]-2-[4-(3-methylimidazol-4-yl)anilino]-2-oxo-ethyl]-2-methyl-pyrazole-3-carboxamide], the EC50 is 100 to 1000 nM.

As to `Cc1n[nH]c(C)c1-c1ccc(NC(=O)[C@@H](NC(=O)c2ccnn2C)[C@@H]2CCc3ccc(-c4cnn(C(C)(C)C)c4)cc32)cc1` [Example 4, N-[(1S)-1-[(1R)-6-(1-tert-butylpyrazol-4-yl)indan-1-yl]-2-[4-(3,5-dimethyl-1H-pyrazol-4-yl)anilino]-2-oxo-ethyl]-2-methyl-pyrazole-3-carboxamide], the EC50 was under 100 nM. The figure for `Cc1n[nH]c(C)c1-c1ccc(NC(=O)[C@@H](NC(=O)c2ccnn2C)[C@@H]2CCc3ccc(-c4cnn(C5CCC5)c4)cc32)cc1` [Example 5, N-[(1S)-1-[(1R)-6-(1-cyclobutylpyrazol-4-yl)indan-1-yl]-2-[4-(3,5-dimethyl-1H-pyrazol-4-yl)anilino]-2-oxo-ethyl]-2-methyl-pyrazole-3-carboxamide] is under 100 nM; for `Cc1n[nH]c(C)c1-c1ccc(NC(=O)[C@@H](NC(=O)C2(F)CC2)[C@@H]2CCc3ccc(-c4ccc(=O)n(C(C)C)c4)cc32)cc1` [Example 6, N-[(1S)-2-[4-(3,5-dimethyl-1H-pyrazol-4-yl)anilino]-1-[(1R)-6-(1-isopropyl-6-oxo-3-pyridyl)indan-1-yl]-2-oxo-ethyl]-1-fluoro-cyclopropanecarboxamide] it is 100 to 1000 nM. Consider `Cc1n[nH]c(C)c1-c1ccc(NC(=O)[C@@H](NC(=O)C2(F)CC2)[C@@H]2CCc3ccc(-c4ccc(=O)n(C(C)C)c4)cc32)cc1` [Example 7, N-[(1S)-2-[4-(3,5-dimethyl-1H-pyrazol-4-yl)anilino]-1-[(1R)-6-(1-isopropyl-6-oxo-3-pyridyl)indan-1-yl]-2-oxo-ethyl]-1-fluoro-cyclopropanecarboxamide], for which the EC50 is under 100 nM.

For `Cc1n[nH]c(C)c1-c1ccc(NC(=O)[C@@H](NC(=O)c2ccnn2C)[C@@H]2CCc3ccc(-c4cnn(C5CC5)c4)cc32)cc1` [Example 8, N-[(1S)-1-[(1R)-6-(1-cyclopropylpyrazol-4-yl)indan-1-yl]-2-[4-(3,5-dimethyl-1H-pyrazol-4-yl)anilino]-2-oxo-ethyl]-2-methyl-pyrazole-3-carboxamide], the 50% effective concentration (EC50) was under 100 nM. Turning to `Cc1n[nH]c(C)c1-c1ccc(NC(=O)[C@@H](NC(=O)C2(F)CC2)[C@@H]2CCc3ccc(-c4ccnc(N5CCNCC5)c4)cc32)cc1` [Example 9, N-[(1S)-2-[4-(3,5-dimethyl-1H-pyrazol-4-yl)anilino]-2-oxo-1-[(1R)-6-(2-piperazin-1-yl-4-pyridyl)indan-1-yl]ethyl]-1-fluoro-cyclopropanecarboxamide], the concentration for a half-maximal effect (EC50) is under 100 nM. As to `Cc1n[nH]c(C)c1-c1ccc(NC(=O)[C@@H](NC(=O)c2ccnn2C)[C@@H]2CCc3ccc(-c4ccc5c(c4)CN(C)C5)cc32)cc1` [Example 10, N-[(1S)-2-[4-(3,5-dimethyl-1H-pyrazol-4-yl)anilino]-1-[(1R)-6-(2-methylisoindolin-5-yl)indan-1-yl]-2-oxo-ethyl]-2-methyl-pyrazole-3-carboxamide], the EC50 is under 100 nM. With `Cc1n[nH]c(C)c1-c1ccc(NC(=O)[C@@H](NC(=O)c2ccnn2C)[C@@H]2CCc3ccc(-c4cnn(C(C)(C)CO)c4)cc32)cc1` [Example 11, N-[(1S)-2-[4-(3,5-dimethyl-1H-pyrazol-4-yl)anilino]-1-[(1R)-6-[1-(2-hydroxy-1,1-dimethyl-ethyl]pyrazol-4-yl]indan-1-yl]-2-oxo-ethyl]-2-methyl-pyrazole-3-carboxamide] the figure was under 100 nM.
